Data taken from patent US4052455A, “Styrylamidines” (Mead Johnson & Company, priority 1975, dated 1977).
Structures can show the parent of a compound that is named as a salt.

What was measured:
platelet aggregation = experiment: Born/O'Brien nephelometric platelet aggregation test in platelet rich plasma (ADP or collagen induced); type: cell-based; conditions: human or rabbit platelet rich plasma, 50% or more reduction, read-out: Concentration at which collagen or adenosine diphosphate induced platelet aggregation is reduced by 50% or more
Method: (§1) Measurement of the antithrombogenic activity of the compounds of Formula I is carried out by standard pharmacological tests essentially described by Born, Nature, 194, 927 (1962) and O'Brien, J. Clin. Path., 15, 446 (1962). This test comprises a nephelometric method is which the change in turbidity of a specimen of platelet rich plasma (human or rabbit) is measured on causation of platelet aggregation by addition of a thrombogenic inducing agent such as adenosine diphosphate or collagen. The compounds of the present invention are effective antithrombogenic agents according to this test at concentrations in the order of about 0.5 to 90 mcg./0.5 ml. platelet rich plasma. In the intact animal, the antithrombogenic effect is readily observed by applying the above test to blood samples withdrawn prior to and after administration of a compound of the present invention.

[1] = test system: blood platelet aggregation; experiment: Oral administration to rabbits; inhibition of blood platelet aggregation induced by ADP or collagen in platelet rich plasma (Example 56); type: in vivo; conditions: rabbit, oral single dose 25 mg./kg.; for % Inhibition of Blood Platelet Aggregation Induced by ADP: ADP 0.25-1.0 microgram; for % Inhibition of Blood Platelet Aggregation Induced by Collagen: lowest amount of collagen giving maximal aggregation
Method: as §1
The styrylamidine is orally administered to each rabbit in a group of 2-6 rabbits at a single dose of 25 mg./kg. body weight. A 8 ml. portion of blood is drawn just prior to dosing in order to obtain a control value and at various time periods thereafter. Platelet rich plasma is prepared from each blood sample by centrifugation at 200 times gravity for 10 min. at room temperature. Samples (0.5 ml.) of platelet rich plasma are tested for their ability to aggregate with either collagen or adenosine-5'-diphosphate added as specified in the modification of Born and O'Brien method which has been fully described hereinbefore. The results shown below indicate the inhibition of blood platelet aggregation induced by the lowest amount of collagen giving maximal aggregation or 0.25-1.0 microgram adenosine-5'-diphosphate for representative amidines.

[2] = test system: phenylquinone writhing syndrome; experiment: Phenylquinone writhing test (analgesic activity); type: in vivo; conditions: mice
Method: In this test, groups of 10-20 mice are injected subcutaneously or orally with different doses of the test compound. At predetermined time intervals, the mice receive 2.5 mg./kg. phenylquinone intraperitoneally. The total number of writhing episodes is counted for each mouse for 10 min. and the average percent decrease in writhing recorded for each dose.
The novel styrylsulfonylamidines of Formula V in addition to being useful as precursors to the styrylamidine products of Formula I have analgesic utility as measured in the foregoing phenylquinone writhing test. A preferred class of styrylsulfonylamidines of Formula V having particularly significant analgesic activity are those wherein R1 and R2 are each hydrogen, nitro or halogen and A is phenyl or lower alkyl of from 1 to 8 carbon atoms inclusive. Analgesic activity at the time interval indicated following administration of compounds representative of this class are given in Table I below.

[3] = subcutaneous 6 mg./kg., time interval 30 min.

N=C(N/C=C/c1ccc([N+](=O)[O-])cc1)c1cc(N)cc(N)c1 [3,5-DIAMINO-N-(4-NITROSTYRYL)-BENZAMIDINE TRIHYDROCHLORIDE]
IC50 (platelet aggregation): < 30 µg/mL

N=C(N/C=C/c1ccc(N)cc1)c1cccc(N)c1 [3-AMINO-N-(4-AMINOSTYRYL)BENZAMIDINE TRIHYDROCHLORIDE MONOHYDRATE]
IC50 (platelet aggregation): < 30 µg/mL

CN(C)c1ccc(C(=N)N/C=C/c2ccc([N+](=O)[O-])cc2)cc1 [4-(DIMETHYLAMINO)-N-(4-NITROSTYRYL)-BENZAMIDINE ISETHIONATE]
IC50 (platelet aggregation): < 30 µg/mL

N=C(N/C=C/c1ccc(N)cc1)c1ccc(N)cc1 [4-AMINO-N-(4-AMINOSTYRYL)BENZAMIDINE TRIHYDROCHLORIDE]
IC50 (platelet aggregation): < 30 µg/mL

N=C(N/C=C/c1ccc([N+](=O)[O-])cc1)c1ccc(N)cc1 [4-AMINO-N-(4-NITROSTYRYL)BENZAMIDINE HYDROCHLORIDE]
IC50 (platelet aggregation): < 30 µg/mL

N=C(N/C=C/c1ccccc1N)c1ccccc1 [N-(2-AMINOSTYRYL)BENZAMIDINE DIHYDROCHLORIDE]
IC50 (platelet aggregation): < 30 µg/mL

CC(C)(C)C(=N)N/C=C/c1ccc(Cl)c(Cl)c1 [N-(3,4-DICHLOROSTYRYL)-2,2-DIMETHYLPROPIONAMIDINE]
% Inhibition of Blood Platelet Aggregation Induced by ADP ([1]; 1 hr.): 60% | % Inhibition of Blood Platelet Aggregation Induced by ADP ([1]; 2 hrs.): 25% | % Inhibition of Blood Platelet Aggregation Induced by ADP ([1]; 4 hrs.): 67% | % Inhibition of Blood Platelet Aggregation Induced by ADP ([1]; 6 hrs.): 87% | % Inhibition of Blood Platelet Aggregation Induced by ADP ([1]; 24 hrs.): 0% | % Inhibition of Blood Platelet Aggregation Induced by Collagen ([1]; 1 hr.): 78% | % Inhibition of Blood Platelet Aggregation Induced by Collagen ([1]; 2 hrs.): 80% | % Inhibition of Blood Platelet Aggregation Induced by Collagen ([1]; 4 hrs.): 95% | % Inhibition of Blood Platelet Aggregation Induced by Collagen ([1]; 6 hrs.): 95% | % Inhibition of Blood Platelet Aggregation Induced by Collagen ([1]; 24 hrs.): 0%

CC(=N)N/C=C/c1ccc(Cl)c(Cl)c1 [N-(3,4-DICHLOROSTYRYL)ACETAMIDINE HYDROCHLORIDE]
IC50 (platelet aggregation): < 30 µg/mL | % Inhibition of Blood Platelet Aggregation Induced by ADP ([1]; 1 hr.): 50% | % Inhibition of Blood Platelet Aggregation Induced by ADP ([1]; 2 hrs.): 52% | % Inhibition of Blood Platelet Aggregation Induced by ADP ([1]; 4 hrs.): 67% | % Inhibition of Blood Platelet Aggregation Induced by ADP ([1]; 6 hrs.): 55% | % Inhibition of Blood Platelet Aggregation Induced by ADP ([1]; 24 hrs.): 0% | % Inhibition of Blood Platelet Aggregation Induced by Collagen ([1]; 1 hr.): 67% | % Inhibition of Blood Platelet Aggregation Induced by Collagen ([1]; 2 hrs.): 50% | % Inhibition of Blood Platelet Aggregation Induced by Collagen ([1]; 4 hrs.): 85% | % Inhibition of Blood Platelet Aggregation Induced by Collagen ([1]; 6 hrs.): 55% | % Inhibition of Blood Platelet Aggregation Induced by Collagen ([1]; 24 hrs.): 0%

N=C(N/C=C/c1ccc(Cl)c(Cl)c1)c1ccccc1 [N-(3,4-DICHLOROSTYRYL)BENZAMIDINE HYDROCHLORIDE]
% Inhibition of Blood Platelet Aggregation Induced by ADP ([1]; 0.5 hrs.): 61% | % Inhibition of Blood Platelet Aggregation Induced by ADP ([1]; 2 hrs.): 54% | % Inhibition of Blood Platelet Aggregation Induced by ADP ([1]; 4 hrs.): 30% | % Inhibition of Blood Platelet Aggregation Induced by ADP ([1]; 6 hrs.): 22% | % Inhibition of Blood Platelet Aggregation Induced by ADP ([1]; 24 hrs.): 0% | % Inhibition of Blood Platelet Aggregation Induced by Collagen ([1]; 0.5 hrs.): 73% | % Inhibition of Blood Platelet Aggregation Induced by Collagen ([1]; 2 hrs.): 65% | % Inhibition of Blood Platelet Aggregation Induced by Collagen ([1]; 4 hrs.): 26% | % Inhibition of Blood Platelet Aggregation Induced by Collagen ([1]; 6 hrs.): 3% | % Inhibition of Blood Platelet Aggregation Induced by Collagen ([1]; 24 hrs.): 0%

CCCC(=N)N/C=C/c1ccc(Cl)c(Cl)c1 [N-(3,4-DICHLOROSTYRYL)BUTYRAMIDINE HYDROCHLORIDE]
% Inhibition of Blood Platelet Aggregation Induced by ADP ([1]; 1 hr.): 18% | % Inhibition of Blood Platelet Aggregation Induced by ADP ([1]; 2 hrs.): 67% | % Inhibition of Blood Platelet Aggregation Induced by ADP ([1]; 4 hrs.): 37% | % Inhibition of Blood Platelet Aggregation Induced by ADP ([1]; 6 hrs.): 30% | % Inhibition of Blood Platelet Aggregation Induced by ADP ([1]; 24 hrs.): 0% | % Inhibition of Blood Platelet Aggregation Induced by Collagen ([1]; 1 hr.): 30% | % Inhibition of Blood Platelet Aggregation Induced by Collagen ([1]; 2 hrs.): 92% | % Inhibition of Blood Platelet Aggregation Induced by Collagen ([1]; 4 hrs.): 32% | % Inhibition of Blood Platelet Aggregation Induced by Collagen ([1]; 6 hrs.): 45% | % Inhibition of Blood Platelet Aggregation Induced by Collagen ([1]; 24 hrs.): 0%

N=C(N/C=C/c1ccc(Cl)c(Cl)c1)C1CC1 [N-(3,4-DICHLOROSTYRYL)CYCLOPROPANECARBOXAMIDINE HYDROCHLORIDE]
% Inhibition of Blood Platelet Aggregation Induced by ADP ([1]; 1 hr.): 60% | % Inhibition of Blood Platelet Aggregation Induced by ADP ([1]; 2 hrs.): 55% | % Inhibition of Blood Platelet Aggregation Induced by ADP ([1]; 4 hrs.): 90% | % Inhibition of Blood Platelet Aggregation Induced by ADP ([1]; 6 hrs.): 75% | % Inhibition of Blood Platelet Aggregation Induced by ADP ([1]; 24 hrs.): 5% | % Inhibition of Blood Platelet Aggregation Induced by Collagen ([1]; 1 hr.): 65% | % Inhibition of Blood Platelet Aggregation Induced by Collagen ([1]; 2 hrs.): 85% | % Inhibition of Blood Platelet Aggregation Induced by Collagen ([1]; 4 hrs.): 97% | % Inhibition of Blood Platelet Aggregation Induced by Collagen ([1]; 6 hrs.): 87% | % Inhibition of Blood Platelet Aggregation Induced by Collagen ([1]; 24 hrs.): 15%

N=C(N/C=C/c1ccc(Cl)c(Cl)c1)C1CC1 [N-(3,4-dichlorostyryl)cyclopropanecarboxamidine]
IC50 (platelet aggregation): < 30 µg/mL

CC(=N)N/C=C/c1ccc(C2CCCCC2)c(Br)c1 [N-(3-BROMO-4-CYCLOHEXYLSTYRYL)ACETAMIDINE HYDROCHLORIDE]
IC50 (platelet aggregation): < 30 µg/mL

CC(=O)Nc1ccc(/C=C/NC(=N)c2ccccc2)cc1 [N-(4-ACETAMIDOSTYRYL)BENZAMIDINE HYDROCHLORIDE]
IC50 (platelet aggregation): < 30 µg/mL

N=C(N/C=C/c1ccc(N)cc1)c1ccccc1 [N-(4-AMINOSTYRYL)BENZAMIDINE DIHYDROCHLORIDE]
IC50 (platelet aggregation): < 30 µg/mL

CC(=N)NS(=O)(=O)C=Cc1ccc([N+](=O)[O-])cc1 [N-(4-nitrostyrylsulfonyl)-acetamidine, N-(4-NITROSTYRYLSULFONYL)ACETAMIDINE]
Analgesic activity, Percent Inhibition ([2]; subcutaneous 6 mg./kg., time interval 60 min.): 36%

CC(=N)NS(=O)(=O)C=Cc1ccccc1 [N-(styrylsulfonyl)acetamidine, N-(STYRYLSULFONYL)ACETAMIDINE]
Analgesic activity, Percent Inhibition ([2]; subcutaneous 6 mg./kg., time interval 15 min.): 38%

N=C(NS(=O)(=O)C=Cc1ccccc1)c1ccccc1 [N-(styrylsulfonyl)benzamidine, N-(STYRYLSULFONYL)BENZAMIDINE]
Analgesic activity, Percent Inhibition ([2]; oral 100 mg./kg., time interval 60 min.): 26% | Analgesic activity, Percent Inhibition [2, 3]: 36%

CC(=N)NS(=O)(=O)C=Cc1ccc(Cl)c(Cl)c1 [N-[(3,4-DICHLOROSTYRYL)SULFONYL]ACETAMIDINE]
Analgesic activity, Percent Inhibition ([2]; oral 100 mg./kg., time interval 120 min.): 36% | Analgesic activity, Percent Inhibition [2, 3]: 28%

N=C(N/C=C/c1ccccc1)c1ccccc1 [N-styrylbenzamidine hydrochloride, N-STYRYLBENZAMIDINE HYDROCHLORIDE]
IC50 (platelet aggregation): < 30 µg/mL
